According to patent publication US10144730B2, “Inhibitors of c-Jun-N-terminal kinase (JNK)” (Dana-Farber Cancer Institute, Inc., priority 2011, dated 2018):

Assays:
JNK3 = JNK3 (Homo sapiens, UniProt P53779); assay: Biochemical JNK3 kinase inhibition (Z'-lyte format); settings: Table 2
c-Jun phosphorylation [1] = assay: High throughput microscopy of c-Jun phosphorylation in A375 cells; type: cell-based; settings: Homo sapiens, A-375
Description: Cells were fixed in 2% paraformaldehyde for 10 min at room temperature and washed with PBS-T (Phosphate Buffered Saline, 0.1% Tween 20). Cells were permeabilized in methanol for 10 min at room temperature, washed with PBS-T, and blocked in Odyssey Blocking Buffer (LI-COR Biosciences) for 1 hour at room temperature. Cells were incubated overnight at 4° C. with antibody specific for Erk1/2(pT202/pY204), Akt(pS473), c-Jun(pS73), pP38(T180/Y182) and pSTAT3(Y705) (Cell Signaling Technology), pRSK1(S380) and pMSK1(S376) (Epitomics), and NF-κB (Santa Cruz Biotechnology) diluted 1:400 in Odyssey Blocking Buffer. […] Cells were washed twice with PBS and imaged in an imageWoRx high-throughput microscope (Applied Precision). Data were plotted using DataPflex.
(§1) In parallel with biochemical evaluation, the ability of the compounds to inhibit JNK activity in cells was investigated using two independent assays formats. This is a critical issue because there are several reported JNK inhibitors with nanomolar biochemical potency that translate into micromolar cellular inhibitors. The most well characterized direct phosphorylation substrate of JNK is the transcription factor c-Jun.

c-Jun phosphorylation [2] = assay: LanthaScreen TR-FRET cell assay for c-Jun phosphorylation in HeLa cells; type: cell-based; settings: Homo sapiens; Hela cells, TNF-α stimulation; read-out: p-c-Jun EC50 (nM) Hela
Description: Phosphorylation was determined by measuring the time resolved FRET (TR-FRET) between a terbium labeled phospho-c-Jun specific antibody and GFP. The cells were plated in white tissue culture treated 384 well plates at a density of 10,000 cell per well in 32 μL assay medium (Opti-MEM®, supplemented with 0.5% charcoal/dextran-treated FBS, 100 U/ml penicillin and 100 μg/ml streptomycin, 0.1 mM nonessential amino acids, 1 mM sodium pyruvate, 25 mM Hepes, pH 7.3, and lacking phenol red). After overnight incubation, cells were pretreated for 90 minutes with compound (at indicated concentration) diluted in 4 μL assay buffer followed by 30 min of stimulation with 5 ng/ml of TNF-α in 4 μL assay buffer (final assay volume was 40 μl). The medium was then removed by aspiration, and the cells were lysed by adding 20 μl of lysis buffer (20 mM Tris-HCl, pH 7.6, 5 mM EDTA, 1% Nonidet P-40 substitute, 5 mM NaF, 150 mM NaCl, and 1:100 protease and phosphatase inhibitor mix, SIGMA P8340 and P2850, respectively). The lysis buffer included 2 nM of the terbium-labeled anti-c-Jun (pSer73) detection antibodies (Life Technologies). After allowing the assay to equilibrate for 60 minutes at room temperature, TR-FRET emission ratios were determined on a BMG Pherastar fluorescence plate reader (BMG Labtech, Cary, N.C.) using the following parameters: excitation at 340 nm; emission at 520 nm and 490 nm; 100 μs lag time; 200 μs integration time; and emission ratio=Em520/Em490. All data were analyzed and plotted using Graphpad Prism 4.
as §1

[3] = A375 cells, anisomycin stimulation, read-out: p-c-Jun EC50 (nM) A375
[4] = Table 5, A375, read-out: E50/A375

JNK3, sequence (P53779 whole entry): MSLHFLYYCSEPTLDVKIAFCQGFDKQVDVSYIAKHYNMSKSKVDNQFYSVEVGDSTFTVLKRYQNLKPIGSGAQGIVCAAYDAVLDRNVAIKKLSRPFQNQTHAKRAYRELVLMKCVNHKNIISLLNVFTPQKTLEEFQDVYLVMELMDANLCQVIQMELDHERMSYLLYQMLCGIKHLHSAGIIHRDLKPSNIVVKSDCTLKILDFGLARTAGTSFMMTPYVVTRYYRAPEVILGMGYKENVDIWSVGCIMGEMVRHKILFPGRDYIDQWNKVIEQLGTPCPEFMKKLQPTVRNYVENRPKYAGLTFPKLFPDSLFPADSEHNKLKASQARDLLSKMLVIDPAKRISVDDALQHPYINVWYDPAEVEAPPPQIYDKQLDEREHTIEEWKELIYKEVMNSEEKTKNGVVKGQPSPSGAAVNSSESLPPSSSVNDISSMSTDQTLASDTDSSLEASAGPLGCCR

Q: Which IC50 (JNK3) does the source give for `Cc1ccc(NC(=O)/C=C/CN(C)C)cc1C(=O)Nc1ccc(Nc2nccc(-c3cccnc3)n2)cc1` [JNK-IN-9] here?
A: 0.5 nM

Q: What about the EC50 (c-Jun phosphorylation [1]; [3]) of the same molecule?
A: 117 nM

Q: And the EC50 (c-Jun phosphorylation [2])?
A: 104 nM

Q: Which IC50 (JNK3) does the source give for `Cc1ccc(C(=O)Nc2ccc(Nc3nccc(-c4cccnc4)n3)cc2)cc1NC(=O)/C=C/CN(C)C` [JNK-IN-10] here?
A: 0.5 nM

Q: What about the EC50 (c-Jun phosphorylation [1]; [3]) of the same molecule?
A: 141 nM

Q: And the EC50 (c-Jun phosphorylation [2])?
A: 173 nM

Q: How did the EC50 (c-Jun phosphorylation [1]; [3]) turn out when `Oc1c2ccccc2c2c3c(cccc13)N=N2` [SP-600125, reference compound] was run?
A: 1980 nM

Q: What about the EC50 (c-Jun phosphorylation [2]) of the same molecule?
A: 7450 nM

Q: How did the EC50 (c-Jun phosphorylation [1]; [4]) turn out when `C=CC(=O)Nc1ccc(C(=O)Nc2cccc(Nc3nccc(-c4cccnc4)n3)c2)cc1` [ZG-9] was run?
A: 5460 nM

Q: Which EC50 (c-Jun phosphorylation [1]; [4]) does the source give for `CN(C)C/C=C/C(=O)Nc1ccc(C(=O)Nc2cccc(Nc3nccc(-c4cccnc4)n3)c2)cc1` [ZG-10] here?
A: 2400 nM
